Test results taken from patent US20260335327A1, “IDH MUTATIONS AS BIOMARKERS FOR ZOTIRACICLIB THERAPY” (Cothera Bioscience, Inc., priority 2022, published 2026).

How the values were obtained:
Assay type in all cases: cell-based, Human
[1] = tested on: mutant IDH1 (HT-1080) cells; assay: Neutral comet assay (DNA damage), HT-1080 cells; conditions: for rescue of TG02-induced DNA damage: exogenous α-KG or AG-120 with TG02, 48 h
Method: (§1) Cell Culture. Human Chondrosarcoma cell line HT-1080 was cultured in MEM (Gibco, USA) supplemented with 10% fetal bovine serum (FBS, Gemini, USA). Human cholangiocarcinoma cell lines RBE, Hccc-9810, and Hucct-1 were cultured in RPMI1640 (Hyclone, USA) supplemented with 10% FBS. Cells were incubated at 37 °C in 5% CO2.
Comet assay. The comet assay is common technique for measurement of DNA damage in individual cells. Under an electrophoretic field, damaged cellular DNA (containing fragments and strand breaks) is separated from intact DNA, yielding a classic “comet tail” shape under the microscope. DNA damage was assayed by OxiSelect™ Comet Assay Kit (CELL BIOLABS, INC.) according to the manufacturer's instructions. Briefly, comet agarose was pipetted onto the OxiSelect™ Comet Slide to form a base layer. Cells were combined with OxiSelect™ Comet agarose at 37 °C, then the agarose/cell mixture was pipetted onto the top of the base layer. Cells were treated with lysis buffer and alkaline solution. Electrophoresis was performed under neutral conditions. The slides were viewed by epifluorescence microscopy using a FITC filter.
Tail Moment=(100×Tail DNA Intensity/Cell DNA Intensity)×Tail Moment Length

[2] = tested on: mutant IDH1 cells (Hccc-9810); assay: Western blot of pH2AX (marker of DNA damage), Hccc-9810 cells; conditions: exogenous AG-120 with TG02, 48 h; WB; FIG. 6
Method: as §1
(§2) Western blot. Hccc-9810 and Hucct-1 cells treated with TG02 or AG120 as indicated for 48 h (0.1% DMSO was added as control) were harvested and centrifuged at 500 g for 5 minutes to obtain cell pellets. Then the pellets were lysed in lysis buffer (Beyotime, China) which additionally included a protease inhibitor cocktail (Beyotime, China) and phosphatase inhibitor cocktail (Beyotime, China). Cells were incubated on ice for 30 minutes and then centrifuged at 4 °C, 12000 rpm for 10 minutes to obtain the supernatant as cell lysate. The concentrations of protein in cell lysate were determined by Micro BCA™ Protein Assay Kit (ThermoFisher, USA). 4×SDS-PAGE Sample Loading Buffer (SolarBio, China) was added into cell lysate contained 25 μg of total protein and, after boiling, the mixture was electrophoresed in polyacrylamide gel. After electrophoresis, proteins on the gel were transferred to PVDF membrane, and the membrane was cut at position close to the molecular weights of proteins whose expression was examined (pH2AX (CST, USA), GAPDH (ZSGB-BIO, China)).

[3] = tested on: HT-1080; assay: Apoptosis assay (Annexin V/PI staining, FACS), HT-1080 cells; conditions: 0.2 μM TG02; IDH1-mutant chondrosarcoma HT-1080; compared with IDH1-WT (Hucct-1); FIGS. 2A-2B
Method: as §1
(§3) Apoptosis Assay. HT-1080, RBE, Hccc-9810, and Hucct-1 cells were treated with the indicated drugs. Apoptosis was detected by Annexin V/PI staining kit (Thermo Fisher) according to the manufacturer's instructions. Briefly, cells were plated at a density of 1× 10^5 cells/well in media with 10% FBS with desired concentrations of TG02. At 48/72-hour post-treatment the cells were harvested and tested for apoptosis by Annexin V and PI staining. Cell analysis was performed using a FACSCelesta (BD).

[4] = tested on: RBE; assay: Apoptosis assay (Annexin V/PI staining, FACS), RBE cells; conditions: 0.2 μM TG02; IDH1-mutant cholangiocarcinoma RBE; compared with IDH1-WT (Hucct-1); FIGS. 2A-2B
Method: as §1, §3

[5] = tested on: Hccc-9810; assay: Apoptosis assay (Annexin V/PI staining, FACS), Hccc-9810 cells
Method: as §1, §3

[6] = tested on: Hucct-1 cells transfected with IDH1 R132H plasmid; assay: Apoptosis assay (FACS), Hucct-1 cells transfected with IDH1 R132H plasmid; conditions: 0.1 μM TG02, 72 h; Hucct-1 transfected with IDH1 R132H; FIG. 3A
Method: as §1, §3
Transfection. The day before transfection, cells (~2×10^5/well) were seeded in a 6-well plate. The cells were cultured in a 37 °C in 5% CO2 incubator overnight. The old medium was removed and 2 ml of transfection medium was added. 50 μl opti-MEM was added to a tube, and then 2 μg plasmid DNA Mix solution was mixed by vortexing. 4 μl PEI solution was added to this tube, and the solution was mixed by gently pipetting up and down. The samples were incubated at room temperature for 15 min to allow the PEI/DNA complexes to form. […]

[7] = tested on: Hucct1^R132H/+ cells; assay: Neutral comet assay (Tail moment), Hucct1^R132H/+ cells; conditions: 0.2 μM TG02, 48 h, compared with Hucct1 treated with TG02, FIG. 7A
Method: as §1
(§4) Comet assay. The comet assay is common technique for measurement of DNA damage in individual cells. Under an electrophoretic field, damaged cellular DNA (containing fragments and strand breaks) is separated from intact DNA, yielding a classic “comet tail” shape under the microscope. DNA damage was assayed by OxiSelect™ Comet Assay Kit (CELL BIOLABS, INC.) according to the manufacturer's instructions. Briefly, comet agarose was pipetted onto the OxiSelect™ Comet Slide to form a base layer. Cells were combined with OxiSelect™ Comet agarose at 37 °C, then the agarose/cell mixture was pipetted onto the top of the base layer. Cells were treated with lysis buffer and alkaline solution. Electrophoresis was performed under neutral conditions. […]
In FIG. 7A, IDH1-mutant Hucct1 cells (Hucct1^R132H/+) were generated by lentivirus expressing IDH1 R132H. […] Quantification of Tail moment in neutral comet assay is presented. ns: no significant differences; ***: P<0.001, ****: P<0.0001, compared with NC; #: P<0.05, compared with Hucct1 cells treated with TG02. […]

[8] = tested on: Hucct1R132H/+ cells; assay: Western blot of phosphorylated γH2AX (marker of DSBs), Hucct1^R132H/+ cells; conditions: 0.2 μM TG02, 16 h, FIG. 7B
Method: as §2, with “Hccc-9810 and Hucct-1 cells treated with TG02 or AG120 as indicated for 48 h (0.1% DMSO was added as control) were harvested and centrifuged at 500 g for 5 minutes to obtain cell pellets.” left out
In FIG. 7A, IDH1-mutant Hucct1 cells (Hucct1^R132H/+) were generated by lentivirus expressing IDH1 R132H. Hucct1, Hucct1^R132H/+ and HT-1080 cells were treated with 0.2 μM TG02 or 0.1% DMSO for 48 h. Cells were used to comet assays. Quantification of Tail moment in neutral comet assay is presented. ns: no significant differences; ***: P<0.001, ****: P<0.0001, compared with NC; #: P<0.05, compared with Hucct1 cells treated with TG02. […]

[9] = tested on: mutant IDH1 cancer cells; assay: Overall conclusion on DNA damage and cell-killing in mutant IDH1 versus homozygous wild-type IDH1 cancer cells; conditions: mutant IDH1 relative to homozygous wild-type IDH1 cancer cells
Method: as §3, §4
Western blot. […] The concentrations of protein in cell lysate were determined by Micro BCA™ Protein Assay Kit (ThermoFisher, USA). […]

[10] = neutral comet assay, FIGS. 5A-5B

SMILES: N#Cc1ccnc(N2C(=O)CC[C@H]2C(=O)N(c2cncc(F)c2)[C@H](C(=O)NC2CC(F)(F)C2)c2ccccc2Cl)c1 [AG-120, ivosidenib]
- rescue of TG02-induced DNA damage [1, 10]: can be rescued by addition of exogenous α-KG or AG-120
- rescue of TG02-induced DNA damage (pH2AX) [2]: TG02-induced DNA damage was rescued only in mutant IDH1 cells (Hccc-9810)

SMILES: CN1C/C=C/CCOc2cccc(c2)-c2ccnc(n2)Nc2cccc(c2)C1 [TG02, (16E)-14-methyl-20-oxa-5,7,14,27-tetraazatetracyclo[19.3.1.1^2,6. 1^8,12]heptacosa-1(25),2(27),3,5,8,10,12(26),16,21,23-decaene]
- sensitivity to TG02 (apoptosis) [3]: more sensitive to TG02 than IDH1-WT (Hucct-1) cells
- sensitivity to TG02 (apoptosis) [4]: more sensitive to TG02 than IDH1-WT (Hucct-1) cells
- sensitivity to TG02 (apoptosis) ([5]; 0.2 μM TG02, IDH1-mutant cholangiocarcinoma Hccc-9810 (printed Hcc-9810), compared with IDH1-WT (Hucct-1), FIGS. 2A-2B): more sensitive to TG02 than IDH1-WT (Hucct-1) cells
- TG02-induced apoptosis ([5]; TG02 for 72 h, without exogenous α-KG, FIG. 4): TG02-induced apoptosis of mutant IDH1 (Hccc-9810) cells
- TG02 sensitivity (apoptosis) [6]: increased TG02 sensitivity can be conferred onto IDH1-WT (Hucct-1) cells by transfection of mutated IDH1
- sensitivity to DNA damage induced by TG02 (Tail moment) ([1]; 0.2 μM TG02, 48 h, HT-1080, compared with Hucct1 treated with TG02, FIG. 7A): cells with IDH1 mutation are more sensitive to DNA damage induced by TG02
- TG02-induced DNA damage ([1]; 48 h, neutral comet assay, FIGS. 5A-5B): TG02-induced DNA damage in mutant IDH1 (HT-1080) cells
- sensitivity to DNA damage induced by TG02 (Tail moment) [7]: cells with IDH1 mutation are more sensitive to DNA damage induced by TG02
- sensitivity to DNA damage induced by TG02 (phosphorylated γH2AX) [8]: cells with IDH1 mutation are more sensitive to DNA damage induced by TG02
- selective DNA damage [9]: selectively induces DNA damage and cell-killing in mutant IDH1 cancer cells relative to homozygous wild-type IDH1 cancer cells
- selective cell-killing [9]: selectively induces DNA damage and cell-killing in mutant IDH1 cancer cells relative to homozygous wild-type IDH1 cancer cells

SMILES: O=C(O)CCC(=O)C(=O)O [α-KG, α-ketoglutarate]
- rescue of TG02-induced apoptosis ([5]; α-KG pretreatment 24 h, then TG02 for 72 h, FIG. 4): can be rescued by addition of exogenous substrate α-ketoglutarate (α-KG)
- rescue of TG02-induced DNA damage [1, 10]: can be rescued by addition of exogenous α-KG or AG-120
